Ki data for 28 molecules are collected here from patent publication US5830869A, “Thiadiazole amide MMP inhibitors” (priority 1997, dated 1998).

Stromelysin, sequence (P08254 100-477): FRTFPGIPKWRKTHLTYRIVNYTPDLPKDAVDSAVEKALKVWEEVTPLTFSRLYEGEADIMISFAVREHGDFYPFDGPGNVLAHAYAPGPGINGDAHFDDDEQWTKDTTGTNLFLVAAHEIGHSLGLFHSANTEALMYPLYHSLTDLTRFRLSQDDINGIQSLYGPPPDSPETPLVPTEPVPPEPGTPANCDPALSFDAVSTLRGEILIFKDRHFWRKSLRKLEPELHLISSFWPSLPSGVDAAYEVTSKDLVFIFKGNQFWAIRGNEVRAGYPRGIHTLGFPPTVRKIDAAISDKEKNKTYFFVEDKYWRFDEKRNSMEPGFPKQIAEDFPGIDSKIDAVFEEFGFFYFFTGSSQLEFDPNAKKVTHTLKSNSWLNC

The target in the assay is Stromelysin (Homo sapiens, UniProt P08254). In words: Stromelysin inhibition, in vitro particle concentration fluorescence assay (TABLE 1, MMP Inhibition Constants). In kind it is biochemical. As to conditions: fluorescein/biotin substrate, MMP buffer pH 7.5, room temperature, 15 min preincubation with enzyme, 1-3 h with substrate. The method, then:
Inhibitory activity is evaluated in one or more of the MMP enzymes (stromelysin, gelatinase, and collagenase) in vitro using particle concentration fluorescence assay. An inhibitor binds to MMP enzymes which prevents the degradation of a substrate by stromelysin, gelatinase, or collagenase. The substrate has attached to it a fluorescein and a biotin moiety. The intact substrate then binds to an avidin-coated particle via the biotin moiety. Once the particle is washed and dried, a fluorescent signal is generated since the fluorescent group is attached to the particle. Without an inhibitor present, the substrate is degraded by MMP enzymes and the fluorescein group is removed, therefore, no fluorescent signal can be detected. Testing compounds are dissolved in DMSO to the desired concentration, then the solutions are diluted to 1:5 with MMP buffer (50 mM Tris-HCl, pH 7.5; 150 mM NaCl; 0.02% NaN3). Serial two-fold dilutions of each compound are prepared. A concentrated, activated enzyme solution is transferred into each plate of the testing compounds, and the mixture is incubated at room temperature for 15 minutes. Thawed MMP substrate is then added into all plates, and the plates are incubated in the dark for 1-3 hours at room temperature. At this point, the substrate mixture is mixed with 0.1% avidin-coated polystyrene particles. After 15 minutes, the fluorescence values are measured following filtration and washing of the beads. Ki values are then calculated.
Usually Ki stands for a measure of affinity in units of concentration, obtained from inhibition or displacement. `CC(C)(C)OC(=O)NC(C(=O)Nc1n[nH]c(=S)s1)C(C)(C)/C=C/Cc1ccccc1` (stereo not shown) [Example 20, (E)-(1-(((4,5-dihydro-5-thioxo-1,3,4-thiadiazol-2-yl)amino)carbonyl)-2,2-dimethyl-5-phenyl-3-pentenyl)carbamic acid 1,1-dimethylethyl ester] came in with a Ki of 3060 nM.
The result for `COCC(=O)NC(CC(=O)Nc1n[nH]c(=S)s1)c1ccccc1` (stereo not drawn) [Example 47, N-(4,5-dihydro-5-thioxo-1,3,4-thiadiazol-2-yl)-β-[(methoxyacetyl)amino]benzenepropanamide] reads 1360 nM.
As to `O=C(C[C@@H](NC(=O)OCc1ccccc1)c1ccccc1)Nc1n[nH]c(=S)s1` [Example 52, (R)-[3-[(4,5-dihydro-5-thioxo-1,3,4-thiadiazol-2-yl)amino]-3-oxo-1-phenylpropyl]carbamic acid phenylmethyl ester], the Ki was found to be 260 nM.
On to `O=C(CC(NC(=O)COCc1ccccc1)c1ccccc1)Nc1n[nH]c(=S)s1` (stereo not drawn) [Example 49, N-(4,5-dihydro-5-thioxo-1,3,4-thiadiazol-2-yl)-β-[(phenylmethoxyacetyl)amino]benzenepropanamide], for which the Ki amounted to 840 nM.
For the molecule `CC(C)(C)OC(=O)NC(C(=O)Nc1n[nH]c(=S)s1)C(C)(C)/C=C\c1ccccc1` (stereo not shown) [Example 18, (Z)-(1-(((4,5-dihydro-5-thioxo-1,3,4-thiadiazol-2-yl)amino)carbonyl)-2,2-dimethyl-4-phenyl-3-butenyl)carbamic acid 1,1-dimethylethyl ester], the Ki was 1800 nM.
Consider `O=C(N[C@H]1CCCC[C@H]1C(=O)Nc1n[nH]c(=S)s1)OCC1c2ccccc2-c2ccccc21` [Example 53, (1S-cis-)-[2-[[(4,5-dihydro-5-thioxo-1,3,4-thiadiazol-2-yl)amino]carbonyl]cyclohexyl]carbamic acid 9H-fluoren-9-yl-methyl ester], for which the affinity, expressed as Ki, was 15000 nM.
Take `CC(C)C[C@@H](NC(=O)OCc1ccccc1)[C@H](Cc1ccccc1)C(=O)Nc1n[nH]c(=S)s1` (relative stereo) [Example 56, (R*,S*)-[1-[2-[(4,5-dihydro-5-thioxo-1,3,4-thiadiazol-2-yl)amino]-oxo-1(phenylmethyl)ethyl]-3-methylbutyl]carbamic acid phenylmethyl ester]: the Ki was 1700 nM.
`CNC(=O)C(C(=O)Nc1n[nH]c(=S)s1)C(C)(C)C` (stereo not drawn) [Example 59, N-methyl-α-[[(4,5-dihydro-5-thioxo-1,3,4-thiadiazol-2-yl)amino]carbonyl]-3,3-dimethylbutanamide] displayed a Ki of 4300 nM.
Molecule `C=CC(C)(C)C(NC(=O)OC(C)(C)C)C(=O)Nc1n[nH]c(=S)s1` (stereo not shown) [Example 22, (1-(((4,5-dihydro-5-thioxo-1,3,4-thiadiazol-2-yl)amino)carbonyl)-2,2-dimethyl-3-butenyl)carbamic acid 1,1-dimethylethyl ester] showed a Ki of 3510 nM.
The result for `CC(=O)NC(C(=O)Nc1n[nH]c(=S)s1)c1ccccc1` (stereo not drawn) [Example 13, α-(acetylamino)-N-(4,5-dihydro-5-thioxo-1,3,4-thiadiazol-2-yl)-benzeneacetamide] reads 1800 nM; that for `O=C(CCc1ccccc1)NC(C(=O)Nc1n[nH]c(=S)s1)c1ccccc1` (stereo not shown) [Example 14, N-[2-[(4,5-dihydro-5-thioxo-1,3,4-thiadiazol-2-yl)amino]-2-oxo-1-phenylethyl]benzenepropanamide], 640 nM.
Next, `CC(=O)NCSC(C)(C)C(NC(=O)OCc1ccccc1)C(=O)Nc1n[nH]c(=S)s1` (stereo not shown) [Example 17, (2-(((acetylamino)methyl)thio)-1-(((4,5-dihydro-5--thioxo-1,3,4-thiadiazol-2-yl)amino)carbonyl)-2-methylpropyl)carbamic acid phenylmethyl ester]: 1770 nM; `O=C(NCC(Cc1ccccc1)C(=O)Nc1n[nH]c(=S)s1)OCc1ccccc1` (stereo not shown) [Example 39, [3-[(4,5-dihydro-5-thioxo-1,3,4-thiadiazol-2-yl)amino]-3-oxo-2-(phenylmethyl)propyl]carbamic acid phenylmethyl ester]: 1320 nM.
As to `O=C(C[C@H](NC(=O)OCc1ccccc1)c1ccccc1)Nc1n[nH]c(=S)s1` [Example 51, (S)-[3-[(4,5-dihydro-5-thioxo-1,3,4-thiadiazol-2-yl)amino]-3-oxo-1-phenylpropyl]carbamic acid phenylmethyl ester], the Ki is 1500 nM.
`CC(C)C[C@H](NC(=O)OCc1ccccc1)C(=O)Nc1n[nH]c(=S)s1` [Example 35, (S)-[1-[[(4,5-dihydro-5-thioxo-1,3,4-thiadiazol-2-yl)amino]carbonyl]-3-methylbutyl]carbamic acid phenylmethyl ester] came in with a Ki of 2220 nM.
`CC[C@H](C)[C@H](NC(=O)OCc1ccccc1)C(=O)Nc1n[nH]c(=S)s1` [Example 3, [S-(R*,R*)]-[1-[[(4,5-dihydro-5-thioxo-1,3,4-thiadiazol-2-yl)amino]carbonyl]-2-methylbutyl[carbamic acid phenylmethyl ester] showed a Ki of 1240 nM.
In turn, `CC(C)(C)OC(=O)NC(C(=O)Nc1n[nH]c(=S)s1)C(C)(C)CCCc1ccccc1` (stereo not shown) [Example 21, (1-(((4,5-dihydro-5-thioxo-1,3,4-thiadiazol-2-yl)amino)carbonyl)-2,2-dimethyl-5-phenylpentyl)carbamic acid 1,1-dimethylethyl ester] came in with a Ki of 2720 nM.
The result for `C=CC[C@H](C(=O)Nc1n[nH]c(=S)s1)[C@@H](CC(C)C)NC(=O)OCc1ccccc1` (relative stereo) [Example 55, (R*,S*)-[2-[[(4,5-dihydro-5-thioxo-1,3,4-thiadiazol-2-yl)amino]carbonyl]-1-(2-methylpropyl)-4-pentenyl]carbamic acid phenylmethyl ester] reads 1910 nM; that for `CC(C)(C)OC(=O)NC(C(=O)Nc1n[nH]c(=S)s1)C(C)(C)CCc1ccccc1` (stereo not shown) [Example 19, (1-(((4,5-dihydro-5-thioxo-1,3,4-thiadiazol-2-yl)amino)carbonyl)-2,2-dimethyl-4-phenylbutyl)carbamic acid 1,1-dimethylethyl ester], 6200 nM; that for `CC(C)C[C@@H](CC(=O)Nc1n[nH]c(=S)s1)NC(=O)OCc1ccccc1` [Example 54, (S)-[1-[2-[[4,5-dihydro-5-thioxo-1,3,4-thiadiazol-2-yl)amino]-2-oxoethyl]-3-methylbutyl]carbamic acid phenylmethyl ester], 1200 nM.
Take `O=C(N[C@@H](CC1CCCCC1)C(=O)Nc1n[nH]c(=S)s1)OCc1ccccc1` [Example 11]: the Ki stood at 6100 nM.
Take `O=C(CC(NC(=O)Cc1ccccc1)c1ccccc1)Nc1n[nH]c(=S)s1` (stereo not drawn) [Example 43, N-(4,5-dihydro-5-thioxo-1,3,4-thiadiazol-2-yl)-β-[(phenylacetyl)amino]benzenepropanamide]: the Ki was found to be 655 nM.
`CC(C)(C)OC(=O)N1CCC[C@H]1C(=O)N[C@H](C(=O)Nc1n[nH]c(=S)s1)C(C)(C)C` [Example 29, 1-[(1,1-dimethylethoxy)carbonyl]-L-prolyl-N-(4,5-dihydro-5-thioxo-1,3,4-thiadiazol-2-yl)-3-methyl-L-valinamide] returned a Ki of 1470 nM.
`O=C(CC(NC(=O)OCc1ccccc1)c1ccccc1)Nc1nnc(S)s1` (stereo not shown) [Example 41, [3-[(4,5-dihydro-5-thioxo-1,3,4-thiadiazol-2-yl)amino]-3-oxo-1-phenylpropyl]carbamic acid phenylmethyl ester] came in with a Ki of 400 nM.
The molecule `CC(C)(C)[C@H](NC(=O)OCc1ccccc1)C(=O)Nc1n[nH]c(=S)s1` [Example 6, (S)-[1-[[(4,5-dihydro-5-thioxo-1,3,4-thiadiazol-2-yl)amino]carbonyl]-2,2-dimethylpropyl]carbamic acid phenylmethyl ester] yielded a Ki of 530 nM.
Consider `CCOC(=O)C(C(=O)Nc1n[nH]c(=S)s1)C(C)(C)C` (stereo not drawn) [Example 58, ethyl α-[[(4,5-dihydro-5-thioxo-1,3,4-thiadiazol-2-yl)amino]carbonyl]-3,3-dimethylbutanoate], for which the affinity, expressed as Ki, was 5000 nM.
Next, `CC(C)(C)OC(=O)NC(CC(=O)Nc1n[nH]c(=S)s1)c1ccccc1` (stereo not shown) [Example 45, [3-[(4,5-dihydro-5-thioxo-1,3,4-thiadiazol-2-yl)amino]-3-oxo-1-phenylpropyl]carbamic acid 1,1-dimethylethyl ester]: 720 nM; `O=C(N[C@@H](Cc1c[nH]c2ccccc12)C(=O)Nc1n[nH]c(=S)s1)OCc1ccccc1` [Example 33, (S)-[2-[(4,5-dihydro-5-thioxo-1,3,4-thiadiazol-2-yl)amino]-1-(1H-indol-3-yl-methyl)-2-oxoethyl]-carbamic acid, phenylmethyl ester]: 10200 nM.
